The structures appear in SMILES notation.

With `COC(=O)Nc1ccc2occ(CCNC(C)=O)c2c1` [Example 58, Methyl N-{3-[2-(acetylamino)ethyl]benzo[b]furan-5-yl}carbamate], the melting point – broadly, the temperature, or range, at which the solid turns liquid – is 138 to 140 °C.

Turning to `COC(=O)c1ccc2occ(CCNC(=O)C3CCCC3)c2c1` [Example 64, Methyl 3-{2-[(cyclopentylcarbonyl)amino]ethyl}1-benzofuran-5-carboxylate], the melting point was in the range of 122 to 123 °C. As for `COC(=O)c1ccc2occ(CCNC(=O)C3CC3)c2c1` [Example 65, Methyl 3-{2-[(cyclopropylcarbonyl)amino]ethyl}-1-benzofuran-5-carboxylate], the figure is 154 to 155 °C. Take `NC(=O)c1ccc2occ(CCNC(=O)C3CC3)c2c1` [Example 68, 3-{2-[(Cyclopropylcarbonyl)amino]ethyl}-1-benzofuran-5-carboxamide]: the melting point was 209 to 210 °C. The same measure for `NC(=O)c1ccc2occ(CCNC(=O)c3ccco3)c2c1` [Example 69, 3-[2-(2-Furoylamino)ethyl]-1-benzofuran-5-carboxamide]: 110 to 112 °C; for `CNC(=O)c1ccc2occ(CCNC(C)=O)c2c1` [Example 71, 3-[2-(Acetylamino)ethyl]-N-methyl-1-benzofuran-5-carboxamide]: 158 to 159 °C; for `CNC(=O)c1ccc2occ(CCNC(=O)C3CCCC3)c2c1` [Example 72, 3-{2-[(Cyclopentylcarbonyl)amino]ethyl}-N-methyl-1-benzofuran-5-carboxamide]: 170 to 171 °C. As for `CC(=O)NCCc1coc2ccc(NC(=O)OC(C)(C)C)cc12` [Example 76, tert-Butyl 3-[2-(acetylamino)ethyl]-1-benzofuran-5-yl-carbamate], the figure is 146 to 148 °C.
